Experiments:
[1] = tested on: Ba/F3 EGFR-D770-N771ins_SVD xenograft; assay: In vivo pharmacodynamic study in mouse pro-B cell Ba/F3 EGFR-D770-N771ins_SVD xenograft model; conditions: 40 mg/kg, oral, 1 time/day, 14 days; for Tumor volume (mm3, Mean ± SD) Day 14: BALB/cA nude mice
Method: In Vivo Pharmacodynamic Study of the Compound of the Present Invention in the Mouse Pro-B Cell Ba/F3 EGFR-D770-N771ins_SVD Xenograft Model
The in vivo efficacy of the compound in the mouse pro-B cell Ba/F3 EGFR-D770-N771ins_SVD xenograft model was evaluated.
BALB/cA nude mice (6-8 weeks old, female) were purchased from Shanghai Sino-British SIPPR/BK Lab Animal Co., Ltd.
a. […] The resuscitated cells were placed in the cell culture flasks (cell type, date, the name of the culturing person and the like were marked on the flask wall), and incubated in a CO2 incubator (the incubator temperature was 37° C., and the CO2 concentration was 5%).
b. The cells were passaged every three days. After passage, the cells were further incubated in the CO2 incubator. The process was repeated until the number of cells met the requirements of the in vivo pharmacodynamic study.
c. The cultured cells were collected and counted by the automatic cell counter. According to the counting results, the cells were resuspended in PBS to prepare a cell suspension (density: 2×10^7 cells/mL), which was placed in an ice box for later use.
d. The test nude mice were inoculated in turn (0.1 mL of cell suspension per mouse).
a. Tumor was measured on Day 8 to Day 14 after inoculation depending on the tumor growth, and tumor size was calculated.
Tumor volume calculation: tumor volume (mm^3)=length (mm)×width (mm)×width (mm)/2
b. According to the body weight and tumor size of the tumor-bearing mouse, the mice were randomly grouped (5 mice per group).
d. The tumor was measured and the mouse was weighed twice a week after the test drug was administrated.
Calculation of the Tumor Growth Inhibition Rate TGI (%) of the Compound: […]

[2] = biological target: Ba/F3 EGFR-D770-N771ins_SVD (Homo sapiens, UniProt P00533, DUP768-770, cells depend on it); assay: Proliferation of Ba/F3 EGFR mutant cell line (CellTiter-Glo); assay type: cell-based, mouse; conditions: 72 h to 144 h, read-out: Ba/F3 EGFR-D770-N771ins_SVD IC50
Ba/F3 EGFR-D770-N771ins_SVD, sequence (P00533 with tags, fused parts or gaps DUP768-770): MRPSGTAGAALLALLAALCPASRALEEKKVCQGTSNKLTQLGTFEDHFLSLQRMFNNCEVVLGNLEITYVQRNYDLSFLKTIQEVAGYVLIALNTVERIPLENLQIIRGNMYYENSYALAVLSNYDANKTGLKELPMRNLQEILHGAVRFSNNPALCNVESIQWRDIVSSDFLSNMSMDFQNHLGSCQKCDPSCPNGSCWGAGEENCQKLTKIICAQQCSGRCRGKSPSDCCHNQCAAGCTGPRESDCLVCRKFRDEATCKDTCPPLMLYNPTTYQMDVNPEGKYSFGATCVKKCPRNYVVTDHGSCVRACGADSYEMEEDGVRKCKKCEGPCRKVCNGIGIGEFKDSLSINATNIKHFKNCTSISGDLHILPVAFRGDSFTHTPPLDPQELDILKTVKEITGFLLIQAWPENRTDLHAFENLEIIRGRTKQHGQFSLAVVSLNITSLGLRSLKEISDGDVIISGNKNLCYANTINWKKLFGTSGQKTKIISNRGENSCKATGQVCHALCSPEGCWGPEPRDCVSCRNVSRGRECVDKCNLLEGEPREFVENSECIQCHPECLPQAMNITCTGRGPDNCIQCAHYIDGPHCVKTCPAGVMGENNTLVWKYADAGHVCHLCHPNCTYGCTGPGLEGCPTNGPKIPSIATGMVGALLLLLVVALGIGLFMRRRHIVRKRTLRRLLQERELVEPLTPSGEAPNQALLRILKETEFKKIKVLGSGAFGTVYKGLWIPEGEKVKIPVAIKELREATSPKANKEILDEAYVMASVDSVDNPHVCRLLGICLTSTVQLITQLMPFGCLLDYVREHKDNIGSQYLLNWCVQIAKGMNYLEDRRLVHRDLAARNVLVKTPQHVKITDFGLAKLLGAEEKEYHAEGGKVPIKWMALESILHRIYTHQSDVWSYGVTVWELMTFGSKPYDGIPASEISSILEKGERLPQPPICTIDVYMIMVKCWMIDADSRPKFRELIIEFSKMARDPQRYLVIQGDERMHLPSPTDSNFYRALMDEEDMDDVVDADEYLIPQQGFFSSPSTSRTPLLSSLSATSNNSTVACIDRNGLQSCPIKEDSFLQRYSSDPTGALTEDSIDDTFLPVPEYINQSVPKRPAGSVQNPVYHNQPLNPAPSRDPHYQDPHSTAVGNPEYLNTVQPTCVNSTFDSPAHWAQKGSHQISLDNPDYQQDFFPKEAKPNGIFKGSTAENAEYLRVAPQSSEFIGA

[3] = biological target: EGFR D770_N771insNPG (Homo sapiens, UniProt P00533, INS770NPG); assay: TR-FRET inhibition of kinase activity of EGFR exon 20 insertion mutation; assay type: biochemical
EGFR D770_N771insNPG, sequence (P00533 with tags, fused parts or gaps INS770NPG limits assumed): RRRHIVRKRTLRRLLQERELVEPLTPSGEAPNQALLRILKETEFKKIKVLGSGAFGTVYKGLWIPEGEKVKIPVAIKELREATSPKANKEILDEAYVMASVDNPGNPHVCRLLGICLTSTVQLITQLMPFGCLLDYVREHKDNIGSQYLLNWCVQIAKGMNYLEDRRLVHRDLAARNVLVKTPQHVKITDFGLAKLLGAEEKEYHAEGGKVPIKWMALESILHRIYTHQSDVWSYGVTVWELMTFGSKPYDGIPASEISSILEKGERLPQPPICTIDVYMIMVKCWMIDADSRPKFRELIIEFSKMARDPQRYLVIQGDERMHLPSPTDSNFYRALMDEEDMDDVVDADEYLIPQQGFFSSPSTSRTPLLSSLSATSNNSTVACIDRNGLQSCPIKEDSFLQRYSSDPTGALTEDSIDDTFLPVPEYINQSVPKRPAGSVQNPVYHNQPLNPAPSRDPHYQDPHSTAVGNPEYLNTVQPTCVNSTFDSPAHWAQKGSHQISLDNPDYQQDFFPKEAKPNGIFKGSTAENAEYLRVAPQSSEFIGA

[4] = tested on: A431 cell line; assay: Proliferation of A431 cell line (CellTiter-Glo); assay type: cell-based; conditions: Homo sapiens, A-431, 72 h
[5] = Plasma stability test, mouse plasma; assay type: in vitro ADME; conditions: 37° C.
Method: (§1) Test Example 5. Plasma Stability Test
(§2) The objective of this experiment is to determine the stability of the compounds of the examples in the plasma of mouse, rat and human.
(§3) 1. Plasma preparation: Animal or human whole blood was collected, placed into a test tube containing anticoagulant, and centrifuged at 3500 rpm for 10 min. The light yellow plasma in the upper layer was collected.
(§4) 2. 1 mM test compound (m/M/V=C), the compound was weighed and formulated into stock solution with DMSO.
(§5) 1. 398 μL of plasma and 2 μL of 1 mM compound (test compound) were added successively to a 96-well plate, and incubated at 37° C.
(§6) 2. 50 μL of solution was taken out at 0, 15, 30, 60, 120 min, to which 400 μL of methanol stop solution containing internal standard was added.
(§7) 3. The solution was centrifuged (3220 g, 30 min). 50 μL of supernatant was taken out, to which 50 μL of DDH2O was added to dilute. The resulting solution was injected into a LC-MS/MS.

[6] = Plasma stability test, rat plasma; assay type: in vitro ADME; conditions: 37° C.
Method: as §1, §2, §3, §4, §5, §6, §7

[7] = Plasma stability test, human plasma; assay type: in vitro ADME; conditions: 37° C.
Method: as §1, §2, §3, §4, §5, §6, §7

SMILES | T/C (%) Day 14 [1] [%] | TGI (%) Day 14 [1] [%] | Tumor volume (mm3, Mean ± SD) Day 14 [1] [mm3] | GI50 [2] [nM] | IC50 [3] [nM] | IC50 [4] [nM] | further results
C=CC(=O)Nc1cc(Nc2nccc(-c3cn(C)c4ccccc34)n2)c(OC)cc1N(C)CCN(C)C [ADZ9291] | 48.40 | 51.60 | 935 ± 176 |  |  |  | 
C=CC(=O)Nc1cc(Nc2ncc(-c3ncco3)c(-c3cn(C4CC4)c4ccccc34)n2)c(OC)cc1N(C)CCN(C)C [Example 37, N-(5-((4-(1-Cyclopropyl-1H-indol-3-yl)-5-(oxazol-2-yl)pyrimidin-2-yl)amino)-2-((2-(dimethylamino)ethyl)(methyl)amino)-4-methoxyphenyl)acrylamide] | 25.75 | 74.25 | 499 ± 151 | 16.6 | 0.56 | 66 | 
C=CC(=O)Nc1cc(Nc2ncc(C#N)c(-c3cn(C4CC4)c4ccccc34)n2)c(OC)cc1N(C)CCN(C)C [Example 67, N-(5-((5-Cyano-4-(1-cyclopropyl-1H-indol-3-yl)pyrimidin-2-yl)amino)-2-((2-(dimethylamino)ethyl)(methyl)amino)-4-methoxyphenyl)acrylamide] | 10.94 | 89.06 | 212 ± 44 | 10.4 | 0.14 | 94.5 | half-life at 5 µM [5]: 0.665 h; Residual rate (%) 0 min ([5]; 0 min): 100.00%; Residual rate (%) 15 min ([5]; 15 min): 88.69%; Residual rate (%) 30 min ([5]; 30 min): 69.92%; Residual rate (%) 60 min ([5]; 60 min): 36.29%; Residual rate (%) 120 min ([5]; 120 min): 9.06%; half-life at 5 µM [6]: 1.23 h; Residual rate (%) 0 min ([6]; 0 min): 100.00%; Residual rate (%) 15 min ([6]; 15 min): 90.61%; Residual rate (%) 30 min ([6]; 30 min): 81.14%; Residual rate (%) 60 min ([6]; 60 min): 59.66%; Residual rate (%) 120 min ([6]; 120 min): 33.25%; half-life at 5 µM [7]: 1.38 h; Residual rate (%) 0 min ([7]; 0 min): 100.00%; Residual rate (%) 15 min ([7]; 15 min): 93.86%; Residual rate (%) 30 min ([7]; 30 min): 85.71%; Residual rate (%) 60 min ([7]; 60 min): 67.74%; Residual rate (%) 120 min ([7]; 120 min): 37.38%
C=CC(=O)Nc1cc(Nc2ncc(-c3ncco3)c(-c3cn(C)c4ccccc34)n2)c(OC)cc1N(C)CCN(C)C [Example 81, N-(2-((2-(Dimethylamino)ethyl)(methyl)amino)-4-methoxy-5-((4-(1-methyl-1H-indol-3-yl)-5-(oxazol-2-yl)pyrimidin-2-yl)amino)phenyl)acrylamide] | 17.23 | 82.77 | 334 ± 121 | 22.9 | 0.47 | 66.8 | 
